Patent US20230265068A1, “TRANSIENT RECEPTOR POTENTIAL CANONICAL 3 INHIBITORS AND METHODS OF USE THEREOF” (University of Tennessee Research Foundation, priority 2020, published 2023)

Legend:
[1] = maximum tolerated dose / in vivo toxicity study in mice; conditions: 200 mg/kg/day IP for five consecutive days
Protocol: The in vivo study was performed in compliance with the NIH Animal Use Guidelines and protocol approved by the Institutional Animal Care and Use Committee (IACUC) at the University of Tennessee Health Science Center (UTHSC, Memphis, Tenn.). NSG mice at 8 weeks (n=2) and ICR mice at 12 weeks (n=3) were housed with a 12:12-hour light-dark cycle and fed a breeder chow diet. Daily IP injections of 200 mg/kg of compounds 22 or 79 were administered for five consecutive injections in five mice, respectively, which were followed to monitor the mortality rate. Body weights of the mice were recorded daily.
The metabolic stability of compound 22 was tested prior to the next phase of in vivo study. […] The maximum tolerated dose (MTD) study was subsequently performed to investigate its in vivo toxicity (FIGS. 4A and 4B). The second major limitation of Pyr3 is its toxicity due to its alkylating tail moiety. While replacing only the fast-metabolizing head ester group in Pyr3 with a stable amide (compound 79) improved metabolic stability, a single IP injection of compound 79 at 200 mg/kg killed all mice within 24 h.
Compound 79 is a metabolically stable version of Pyr3. Mice treated daily with compound 22 or compound 79 (n=5) for 5 consecutive days. All the mice were treated with either compound 22 or 79 at 200 mg/kg (IP). […]

TRPC3 = target: T1, TRPC3 (Homo sapiens, UniProt Q13507); test: LC-MS detection of compound bound to affinity-purified TRPC3 protein after size-exclusion chromatography; type: binding; parameters: made in house; conditions: 1 h incubation, free compound removed
T1 sequence (Q13507 1-921): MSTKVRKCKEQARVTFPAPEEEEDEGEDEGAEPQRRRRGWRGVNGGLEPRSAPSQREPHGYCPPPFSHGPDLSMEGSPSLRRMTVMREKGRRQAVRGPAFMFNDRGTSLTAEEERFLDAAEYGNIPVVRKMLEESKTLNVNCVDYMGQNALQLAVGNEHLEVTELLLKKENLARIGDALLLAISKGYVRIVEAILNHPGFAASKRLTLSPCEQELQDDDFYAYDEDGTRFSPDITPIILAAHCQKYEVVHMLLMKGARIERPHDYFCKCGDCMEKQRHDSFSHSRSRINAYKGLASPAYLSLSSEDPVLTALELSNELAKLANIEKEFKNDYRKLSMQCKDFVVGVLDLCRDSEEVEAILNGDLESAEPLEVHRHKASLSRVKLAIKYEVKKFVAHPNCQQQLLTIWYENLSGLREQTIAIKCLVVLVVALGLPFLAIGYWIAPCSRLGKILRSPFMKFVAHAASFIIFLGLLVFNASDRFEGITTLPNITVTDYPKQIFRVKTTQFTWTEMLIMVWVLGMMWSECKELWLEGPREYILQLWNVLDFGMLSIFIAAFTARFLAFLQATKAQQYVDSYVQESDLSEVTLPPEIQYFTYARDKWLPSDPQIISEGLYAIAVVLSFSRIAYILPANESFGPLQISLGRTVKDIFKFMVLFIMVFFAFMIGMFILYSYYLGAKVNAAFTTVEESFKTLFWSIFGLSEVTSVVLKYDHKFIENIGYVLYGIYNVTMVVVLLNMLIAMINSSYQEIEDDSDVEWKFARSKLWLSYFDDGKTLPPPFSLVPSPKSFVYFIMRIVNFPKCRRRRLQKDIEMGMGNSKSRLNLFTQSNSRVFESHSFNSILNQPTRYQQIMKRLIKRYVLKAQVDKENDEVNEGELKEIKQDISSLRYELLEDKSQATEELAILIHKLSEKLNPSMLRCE
Protocol: LC-MS technique was employed to find some evidence of the on-target engagement of compound 22 with TRPC3. Biochemical quantities of affinity-purified TRPC3 protein was successfully generated before and was confirmed by SDS-PAGE.21 After incubation of compound 22 with TRPC3 protein for 1 h, repeated size-exclusion chromatography was used to completely remove free compound 22 from the protein-bound fraction. Methanol was then added to this complex to denature the protein and extract the bound compound.

CCNC(=O)c1cnn(-c2ccc(-n3ccc(Cl)c(Cl)c3=O)cc2)c1C(F)(F)F [Compound 22]
acute toxicities / body weight loss [1]: no acute toxicities or body weight loss
binding to TRPC3 protein (compound detected by LC-MS in extract of purified complex) (TRPC3): direct binding
